Measured values as given in patent US7022481B2, “Methods of using glucan synthase pathway reporter genes to screen for antifungal compounds” (Rosetta Inpharmatics LLC, priority 2002, dated 2006).
≈ marks a conversion by molar mass, not a printed value. Like-named read-outs stand apart in the source and are kept apart here.

Key:
Type in all cases: cell-based, S. cerevisiae
ABY12 strain = test: growth inhibition (IC values) in the ABY12 strain
Excerpt: 3. The drug-like agents selected for the assay were the GS inhibitors Enfumafungin, Ascosteroside, and Dihydropapulacandin B; along with the Elongation Factor 2 (EF2) inhibitor Sordarin, to be used as a negative control. These four drugs were all added to the second column of each 96-well assay plate and serially diluted (1 to 2) into Casamino Acids media plus 2% DMSO in columns 3–12, so that column 2 of each plate will contain the highest concentration of each drug and column 12 will contain the lowest. The first column of each plate was used as a “no drug” control, containing only Casamino Acids media plus 2% DMSO. The concentrations for each drug that were added to the wells in column 2 are shown in Table VI (Maximum Concentration Tested) along with the rows of each plate they were added to (Table VI, Rows).
5. After the 24 hour incubation the 96-well assay plates were imaged in a Molecular Dynamics Fluorimager SI to measure the fluorescence from the GFP reporters. […] Additionally, none of the compounds tested induced increased fluorescence from the reporter for inhibition of sterol biosynthesis, HES1 (FIG. 20). […] Of note here is the fact that the highest concentrations tested were all substantially greater than the measured IC50's for these compounds in the ABY12 strain (Table VI). Therefore these strains are capable of reporting on inhibition of GS even at drug concentrations that inhibit cell growth. This is an important characteristic of this assay as the preferred method of high-throughput screening would be to perform the screens at one high concentration for every compound assayed. It has been previously shown that the HES1 reporter strain is capable of performing under such assay conditions in a 384-well formatted high-throughput screen of a combinatorial library (WO 00/58521, PCT published application).

wild-type S288C strain = test: microbe, parasite or virus in culture
Method: First, comprehensive gene expression profiles for S. cerevisiae grown in the presence of known inhibitors of glucan synthase were constructed. Enfumafungin and Ascosteroside were two known glucan synthase inhibitors used in the present invention. Prior to exposing the GRM to these two glucan synthase inhibitors, growth inhibition studies were performed on wild-type S288C strain in order to determine the appropriate concentrations for GRM profiling.

[1] = system: gene reporters in the GRM (promoter-GFP fusions); test: Genome Reporter Matrix (GRM) reporter gene expression profiling
Excerpt: Genome Reporter Matrix™ (GRM) technology was used to generate the gene expression profiles that the glucan synthase inhibition treatments induced in the yeast S. cerevisiae. The GRM was used to generate comprehensive gene expression profiles in the yeast S. cerevisiae. The GRM used in the present invention was a matrix of units comprising living S. cerevisiae cells, the cells in each unit containing one S. cerevisiae reporter fusions (GRM construct) representative of essentially every known gene and hypothetical open reading frame (ORF) of S. cerevisiae. The GRM constructs used in the present invention comprised a promoter, 5′ upstream untranslated region and usually the first four amino acids from one of each hypothetical ORF fused to a gene encoding the green fluorescent protein (GFP).
Solutions of test compounds were added directly to the solid agar growth media plates prior to addition of S. cerevisiae strains. The individual strains comprising the GRM were maintained as independent colonies (and cultures) in a 96-well format, in medium selecting for the URA2-containing reporter plasmid. Prior to each experiment, fresh dilutions of the reporter-containing strains were inoculated and grown overnight at 30° C. A Hamilton MicroLab 4200, a multichannel gantry robot equipped with a custom pin tool device capable of dispensing 50 nanoliter volumes in a highly reproducible manner, was used to array the matrix of S. cerevisiae strains in a uniform manner onto solid agar growth media at a density of 1536 reporter strains per 110 cm^2 plate. Fifty nanoliters of S. cerevisiae liquid cultures arrayed onto solid medium by the Hamilton Microlab 4200 results in colony-to-colony signal reproducibility of less than 5% variation. Once arrayed, each plate was grown at 30° C. for 18 hours or at 25° C. for 24 hours.
The level of fluorescence expressed from each reporter gene fusion was determined using a Molecular Dynamics Fluorimager SI. Custom image analysis software was used to quantitate the fluorescence of each colony in the images.

[2] = system: lawn of the YOL113W (SKM1) reporter strain (ABY12); test: solid plate halo assay, growth of lawn; details: 20 ul of 200 μg/ml (low) and 20 ul of 1 mg/ml (high) on paper disc, 23 hour incubation
Method: (§1) This assay is meant to mimic assays where natural product producing strains would be either plated onto a lawn of our ABY12 reporter carrying strains, or an agar overlay containing the ABY12 reporter strain would be placed over a plate containing natural product producing strains, the purpose being identifying strains that are producing molecules that inhibit GS.
(§2) 1. The YOL113W (SKM1) reporter transformed into wild-type S. Cerevisiae strain ABY12 was grown on a solid Casamino Acids media plate.
(§3) 2. The culture from the solid media plate was used to inoculate a 50 ml liquid culture in Casamino Acids media. This liquid culture was grown overnight at 30 degrees Celsius. The culture was grown to a final OD600=10.5. This culture was then diluted in Casamino Acids media to an OD600=1, or 1×10^7 cells per milliliter. Five-hundred microliters of cell culture (5×10^6 cells) was then spread evenly over the surface of each of two 100 mm solid agar-Casamino-acids-media plates to form a lawn of the YOL113W (SKM1) reporter strain on each plate.
(§4) 3. Two 6 mm diameter blank paper discs (BECTON DICKINSON® #231039) were placed on top of the agar surface of each plate evenly spaced apart. […]
(§5) 4. After a 23 hour incubation the assay plates were imaged in a Molecular Dynamics Fluorimager SI to measure the fluorescence from the GFP reporters. […]

YOL113W (SKM1) reporter = test: solid plate halo assay, reporter fluorescence; details: 20 ul of 200 μg/ml and 1 mg/ml on paper disc, 23 hour incubation
Method: as §1, §2, §3, §4, §5

[3] = system: YOL113W (SKM1), YNR066C, YLR121C (YPS3), YKL161C, and YAR050W (FLO1) GFP reporters; test: liquid high-throughput like 96-well GFP reporter assay, glucan synthase pathway reporters; details: serial 1 to 2 dilutions, ~24 hours at 30 degrees Celsius, five GS reporters
Method: The five reporters selected were: YOL113W (SKM1), YNR066C, YLR121C (YPS3), YKL161C, and YAR050W (FLO1). Another reporter, YOR237W (HES1), was selected as a negative control.
1. Reporters transformed into wild-type S. Cerevisiae strain ABY12 were grown on solid Casamino Acids media plates.
2. The cultures from the solid media plates were used to inoculate 50 ml liquid cultures in Casamino Acids media. These liquid cultures were grown overnight at 30 degrees Celsius. The cultures were all grown to a final OD600˜=8 (Table V).
These cultures were then diluted in Casamino Acids media to and OD600=2.
3. The drug-like agents selected for the assay were the GS inhibitors Enfumafungin, Ascosteroside, and Dihydropapulacandin B; along with the Elongation Factor 2 (EF2) inhibitor Sordarin, to be used as a negative control. […]
5. After the 24 hour incubation the 96-well assay plates were imaged in a Molecular Dynamics Fluorimager SI to measure the fluorescence from the GFP reporters. […] Additionally, none of the compounds tested induced increased fluorescence from the reporter for inhibition of sterol biosynthesis, HES1 (FIG. 20). […] Of note here is the fact that the highest concentrations tested were all substantially greater than the measured IC50's for these compounds in the ABY12 strain (Table VI). […]

[4] = growth inhibition, wild-type S288C strain
[5] = Saccharomyces cerevisiae, read-out: IC50

| Molecule | IC25 (ABY12 strain) [µg/mL] | IC50 (ABY12 strain) [µg/mL] | IC25 (wild-type S288C strain; [4]) [µg/mL] | IC50 (wild-type S288C strain; [4]) [µg/mL] | effectiveness in growth inhibition assays (wild-type S288C strain; wild-type S288C strain) | expression response of reporter YKL161C ([1]; 5 μg/ml in 1% DMSO, FIG. 9) | number of gene reporters significantly up- or down-regulated ([1]; lowest concentration (5.0 μg/ml), p<=0.01, of roughly 6,000 gene reporters in the GRM) | growth of the lawn around paper disc (halo) [2] | IC75 (ABY12 strain) [µg/mL] | IC50 (ABY12 strain; [5]) [µg/mL] | induction of the YOL113W (SKM1) reporter (fluorescence at edge of halo) (YOL113W (SKM1) reporter) | induction of the YOL113W (SKM1) reporter (fluorescence at edge of halo) (YOL113W (SKM1) reporter; listed as enfumafungin) | IC50 (wild-type S288C strain; Saccharomyces cerevisiae) [µg/mL] | IC75 (wild-type S288C strain; [4]) [µg/mL] | growth inhibition of the GRM ([1]; 0.60 μg/ml and 0.75 μg/ml) | fluorescence from the GFP reporters versus no drug controls [3] |
| --- | --- | --- | --- | --- | --- | --- | --- | --- | --- | --- | --- | --- | --- | --- | --- | --- |
| C=C(CC[C@H](C)[C@H]1C[C@@H](O)[C@@]2(C(=O)O)C3=C(CC[C@]12C)[C@@]1(C)CC[C@H](O[C@H]2O[C@H](CO)[C@@H](OC)[C@H](O)[C@H]2O)C(=C)[C@@H]1CC3)C(C)C [Ascosteroside] | 6.3 (≈ 9.74 µM) | 19 (≈ 29.4 µM) | 6.3 (≈ 9.74 µM) | 19 (≈ 29.4 µM) | effective | highly up-regulated | 318 |  |  |  |  |  |  |  |  |  |
| CC(=O)O[C@@H]1C[C@]23C4=CC[C@@]5(C)[C@H](C(=O)O)[C@@](C)([C@H](C)C(C)C)CC[C@]5(C)[C@H]4CC[C@H]2[C@@](C)(COC3O)[C@H]1O[C@@H]1O[C@H](CO)[C@@H](O)[C@H](O)[C@H]1O (stereo partly shown) [Enfumafungin] | 0.54 (≈ 0.762 µM) |  | 0.54 (≈ 0.762 µM) |  | effective |  |  | inhibited the growth of the lawn | 0.9 (≈ 1.27 µM) | 0.69 (≈ 0.973 µM) | significantly induced | upregulating SKM1 reporter | 0.69 (≈ 0.973 µM) | 0.9 (≈ 1.27 µM) | too much growth inhibition |  |
| CO[C@H]1[C@@H](O)[C@H](O)[C@H](OC[C@@]23C[C@@H]4[C@H](C)CC[C@H]4[C@@]4(C=O)CC2C=C(C(C)C)[C@@]34C(=O)O)O[C@@H]1C [Sordarin] | 1.1 (≈ 2.23 µM) |  |  |  |  |  |  |  | 2.5 (≈ 5.08 µM) | 1.5 (≈ 3.05 µM) |  |  |  |  |  | None of the reporters, however, showed any increase in fluorescence |
| Dihydropapulacandin B | 3.7 | 4.4 |  |  |  |  |  |  | 5.3 |  |  |  |  |  |  |  |
